Broadly, the IC50 is the concentration at which inhibition is half-maximal.

Where two headings read alike, the source gives them in different places.

This assay has as its target T1, VLA-4 (Homo sapiens, UniProt P05556+P13612).
T1 construct: host or cells: Jurkat clone E6-1
The assay is described as follows: Adhesion of Jurkat cells to immobilized VCAM-1 (domains 1-3). It is filed as cell-based. Also on record: scale not given here. To be noted: adhesion of CFSE-labeled Jurkat cells to recombinant human VCAM-1 (domains 1-3) coated plates, compounds as yielded by solid phase synthesis, purity about 40-90%. Put shortly:
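CFSE-labelled Jurkat E6-1 cells in Tris buffer pH 7.4 with 2 mM MnCl2 were added to wells coated with insect-cell-expressed human VCAM-1 domains 1-3 (0.5 μg/ml coating solution); labelled cells were incubated for 30 min at 37 °C with the VLA-4 inhibitor.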

T1 sequence (P13612 34-1032): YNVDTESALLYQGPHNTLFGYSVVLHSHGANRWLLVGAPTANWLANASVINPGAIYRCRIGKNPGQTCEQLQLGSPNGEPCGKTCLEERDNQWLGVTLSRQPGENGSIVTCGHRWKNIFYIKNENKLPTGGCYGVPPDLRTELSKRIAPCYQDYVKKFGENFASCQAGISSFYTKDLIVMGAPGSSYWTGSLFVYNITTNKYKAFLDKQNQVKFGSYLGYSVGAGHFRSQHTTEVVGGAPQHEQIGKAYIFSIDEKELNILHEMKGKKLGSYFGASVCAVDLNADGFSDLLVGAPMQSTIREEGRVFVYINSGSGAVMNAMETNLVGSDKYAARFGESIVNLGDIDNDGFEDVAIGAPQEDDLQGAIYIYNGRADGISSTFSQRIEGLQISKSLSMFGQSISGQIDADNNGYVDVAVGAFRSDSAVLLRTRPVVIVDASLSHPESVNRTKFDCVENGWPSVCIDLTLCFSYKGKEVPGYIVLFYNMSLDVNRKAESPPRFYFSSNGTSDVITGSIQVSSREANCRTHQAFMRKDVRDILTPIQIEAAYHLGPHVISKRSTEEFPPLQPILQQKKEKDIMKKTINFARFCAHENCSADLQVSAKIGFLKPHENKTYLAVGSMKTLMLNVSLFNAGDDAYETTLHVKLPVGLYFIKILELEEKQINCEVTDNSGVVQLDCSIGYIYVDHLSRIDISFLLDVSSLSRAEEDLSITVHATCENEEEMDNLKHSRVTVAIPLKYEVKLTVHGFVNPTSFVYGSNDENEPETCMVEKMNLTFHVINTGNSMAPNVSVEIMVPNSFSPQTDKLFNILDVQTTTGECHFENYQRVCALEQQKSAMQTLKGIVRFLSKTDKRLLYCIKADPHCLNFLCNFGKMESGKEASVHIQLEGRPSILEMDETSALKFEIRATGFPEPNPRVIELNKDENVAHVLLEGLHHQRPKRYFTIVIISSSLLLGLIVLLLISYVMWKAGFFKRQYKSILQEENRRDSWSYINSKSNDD
T1 sequence (P05556 21-798): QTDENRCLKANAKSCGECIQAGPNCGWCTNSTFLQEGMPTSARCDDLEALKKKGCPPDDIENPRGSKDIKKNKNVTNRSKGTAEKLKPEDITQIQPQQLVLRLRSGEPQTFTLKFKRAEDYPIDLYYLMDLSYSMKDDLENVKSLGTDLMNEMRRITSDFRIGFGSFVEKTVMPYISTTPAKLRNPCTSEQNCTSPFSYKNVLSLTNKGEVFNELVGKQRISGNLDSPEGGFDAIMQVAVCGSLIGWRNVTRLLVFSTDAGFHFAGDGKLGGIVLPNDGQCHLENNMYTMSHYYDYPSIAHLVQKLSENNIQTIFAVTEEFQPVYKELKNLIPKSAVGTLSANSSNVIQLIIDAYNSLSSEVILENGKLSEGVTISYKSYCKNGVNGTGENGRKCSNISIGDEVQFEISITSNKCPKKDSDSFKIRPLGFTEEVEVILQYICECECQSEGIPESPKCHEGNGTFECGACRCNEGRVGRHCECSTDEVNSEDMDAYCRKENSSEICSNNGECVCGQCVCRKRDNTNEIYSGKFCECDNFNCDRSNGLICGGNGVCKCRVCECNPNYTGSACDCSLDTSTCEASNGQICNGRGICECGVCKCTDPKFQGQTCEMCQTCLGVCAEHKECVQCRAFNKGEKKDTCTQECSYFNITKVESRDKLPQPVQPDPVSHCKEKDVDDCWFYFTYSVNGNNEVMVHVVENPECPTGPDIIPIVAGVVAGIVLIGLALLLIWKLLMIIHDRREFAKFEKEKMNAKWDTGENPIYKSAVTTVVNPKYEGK

Turning to `Cc1ccc(-c2ccc(C[C@H](NC(=O)C3CCCN(c4ncnc(NCCN5CCCC5)c4F)C3)C(=O)O)cc2)cc1` (stereo partly drawn) [Example 2.12], the IC50 result is reported as “C-D”.

As to `CCCCN(C)c1ncnc(N2CCCC(C(=O)N[C@@H](Cc3ccc(-c4ccc(C)cc4)cc3)C(=O)O)C2)c1F` (stereo partly drawn) [Example 2.13], the IC50 result is “C-D”.

With `COc1ccc(-c2ccc(C[C@H](NC(=O)C3CCCN(c4ncnc(NCc5ccccn5)c4F)C3)C(=O)O)cc2)cc1` (stereo partly drawn) [Example 2.14], the IC50 result is listed as “C-D”.

Consider `COc1ccc(-c2ccc(C[C@H](NC(=O)C3CCCN(c4ncnc(NC5CCCCC5)c4F)C3)C(=O)O)cc2)cc1` (stereo partly drawn) [Example 2.15], for which the IC50 result is listed as “C-D”.

As to `COc1ccc(-c2ccc(C[C@H](NC(=O)C3CCCN(c4ncnc(N5CCCCC5)c4F)C3)C(=O)O)cc2)cc1` (stereo partly drawn) [Example 2.16], the IC50 entry is “C-D”.

As to `COc1ccc(-c2ccc(C[C@H](NC(=O)C3CCCN(c4ncnc(N5CCOCC5)c4F)C3)C(=O)O)cc2)cc1` (stereo partly drawn) [Example 2.17], the IC50 result is listed as “C-D”.

For the compound `COc1ccc(-c2ccc(C[C@H](NC(=O)C3CCCN(c4ncnc(N(C)Cc5ccccc5)c4F)C3)C(=O)O)cc2)cc1` (stereo partly drawn) [Example 2.18], the IC50 result is given as “C-D”.

Consider `COc1ccc(-c2ccc(C[C@H](NC(=O)C3CCCN(c4ncnc(N5CCNCC5)c4F)C3)C(=O)O)cc2)cc1` (stereo partly drawn) [Example 2.19], for which the concentration for half-maximal inhibition (IC50) result is reported as “C-D”.

Regarding `CCCNc1ncnc(N2CCCC(C(=O)N[C@@H](Cc3ccc(-c4ccc(OC)cc4)cc3)C(=O)O)C2)c1F` (stereo partly drawn) [Example 2.20], the IC50 entry is recorded as “C-D”.

Consider `COc1ccc(-c2ccc(C[C@H](NC(=O)C3CCCN(c4ncnc(NC5Cc6ccccc6C5)c4F)C3)C(=O)O)cc2)cc1` (stereo partly drawn) [Example 2.21], for which the IC50 entry was “C-D”.

Regarding `COc1ccc(-c2ccc(C[C@H](NC(=O)C3CCCN(c4ncnc(NCCN5CCCC5)c4F)C3)C(=O)O)cc2)cc1` (stereo partly drawn) [Example 2.22], the IC50 result was “C-D”.

As to `CCCCN(C)c1ncnc(N2CCCC(C(=O)N[C@@H](Cc3ccc(-c4ccc(OC)cc4)cc3)C(=O)O)C2)c1F` (stereo partly drawn) [Example 2.23], the IC50 entry is “C-D”.

For `Cc1ccccc1-c1ccc(C[C@H](NC(=O)C2CCCN(c3ncnc(NCc4ccccn4)c3F)C2)C(=O)O)cc1` (stereo partly drawn) [Example 2.24], the IC50 result was “C-D”.

As for `Cc1ccccc1-c1ccc(C[C@H](NC(=O)C2CCCN(c3ncnc(NC4CCCCC4)c3F)C2)C(=O)O)cc1` (stereo partly drawn) [Example 2.25], the IC50 entry is listed as “C-D”.

Take `Cc1ccccc1-c1ccc(C[C@H](NC(=O)C2CCCN(c3ncnc(N4CCCCC4)c3F)C2)C(=O)O)cc1` (stereo partly drawn) [Example 2.26]: the IC50 result is listed as “C-D”.

As for `Cc1ccccc1-c1ccc(C[C@H](NC(=O)C2CCCN(c3ncnc(N4CCOCC4)c3F)C2)C(=O)O)cc1` (stereo partly drawn) [Example 2.27], the IC50 result is reported as “C-D”.

As for `Cc1ccccc1-c1ccc(C[C@H](NC(=O)C2CCCN(c3ncnc(N(C)Cc4ccccc4)c3F)C2)C(=O)O)cc1` (stereo partly drawn) [Example 2.28], the IC50 entry is “C-D”.

For `Cc1ccccc1-c1ccc(C[C@H](NC(=O)C2CCCN(c3ncnc(N4CCNCC4)c3F)C2)C(=O)O)cc1` (stereo partly drawn) [Example 2.29], the IC50 result is “C-D”.

As to `CCCNc1ncnc(N2CCCC(C(=O)N[C@@H](Cc3ccc(-c4ccccc4C)cc3)C(=O)O)C2)c1F` (stereo partly drawn) [Example 2.30], where the note is “read-out: IC50”, the half-inhibitory concentration (IC50) is 2 to 10 µM.

Regarding `Cc1ccccc1-c1ccc(C[C@H](NC(=O)C2CCCN(c3ncnc(NC4Cc5ccccc5C4)c3F)C2)C(=O)O)cc1` (stereo partly drawn) [Example 2.31], the IC50 result is listed as “C-D”.

As to `Cc1ccccc1-c1ccc(C[C@H](NC(=O)C2CCCN(c3ncnc(NCCN4CCCC4)c3F)C2)C(=O)O)cc1` (stereo partly drawn) [Example 2.32], the IC50 result is “C-D”.

For `CCCCN(C)c1ncnc(N2CCCC(C(=O)N[C@@H](Cc3ccc(-c4ccccc4C)cc3)C(=O)O)C2)c1F` (stereo partly drawn) [Example 2.33], the IC50 entry is “C-D”.

On to `O=C(N[C@@H](Cc1ccc(-c2cc(Cl)ccc2Cl)cc1)C(=O)O)C1CCCN(c2ncnc(NC3CCCCC3)c2F)C1` (stereo partly drawn) [Example 2.34], for which, where the note is “read-out: IC50”, the IC50 is 2 to 10 µM.

`O=C(N[C@@H](Cc1ccc(-c2cc(Cl)ccc2Cl)cc1)C(=O)O)C1CCCN(c2ncnc(N3CCCCC3)c2F)C1` (stereo partly drawn) [Example 2.35]: the IC50 entry is reported as “C-D”.

For `CN(Cc1ccccc1)c1ncnc(N2CCCC(C(=O)N[C@@H](Cc3ccc(-c4cc(Cl)ccc4Cl)cc3)C(=O)O)C2)c1F` (stereo partly drawn) [Example 2.36], the 50% inhibitory concentration (IC50) entry is “C-D”.

As to `CCCNc1ncnc(N2CCCC(C(=O)N[C@@H](Cc3ccc(-c4cc(Cl)ccc4Cl)cc3)C(=O)O)C2)c1F` (stereo partly drawn) [Example 2.37], the IC50 entry is recorded as “C-D”.

For `O=C(N[C@@H](Cc1ccc(-c2cc(Cl)ccc2Cl)cc1)C(=O)O)C1CCCN(c2ncnc(NC3Cc4ccccc4C3)c2F)C1` (stereo partly drawn) [Example 2.38], the IC50 entry was “C-D”.

Take `O=C(N[C@@H](Cc1ccc(-c2cc(Cl)ccc2Cl)cc1)C(=O)O)C1CCCN(c2ncnc(NCCN3CCCC3)c2F)C1` (stereo partly drawn) [Example 2.39]: the IC50 (read-out: IC50) was in the range of 0.5 to 2 µM.

Turning to `CCCCN(C)c1ncnc(N2CCCC(C(=O)N[C@@H](Cc3ccc(-c4cc(Cl)ccc4Cl)cc3)C(=O)O)C2)c1F` (stereo partly drawn) [Example 2.40], the IC50 result is “A-B”.

Take `O=C(N[C@@H](Cc1ccc(-c2ccc(Cl)c(Cl)c2)cc1)C(=O)O)C1CCCN(c2ncnc(NCc3ccccn3)c2F)C1` (stereo partly drawn) [Example 2.41]: the IC50 entry was “C-D”.

Consider `O=C(N[C@@H](Cc1ccc(-c2ccc(Cl)c(Cl)c2)cc1)C(=O)O)C1CCCN(c2ncnc(NC3CCCCC3)c2F)C1` (stereo partly drawn) [Example 2.42], for which the IC50 entry is recorded as “C-D”.

Consider `O=C(N[C@@H](Cc1ccc(-c2ccc(Cl)c(Cl)c2)cc1)C(=O)O)C1CCCN(c2ncnc(N3CCCCC3)c2F)C1` (stereo partly drawn) [Example 2.43], for which the IC50 entry is reported as “C-D”.

Consider `O=C(N[C@@H](Cc1ccc(-c2ccc(Cl)c(Cl)c2)cc1)C(=O)O)C1CCCN(c2ncnc(N3CCOCC3)c2F)C1` (stereo partly drawn) [Example 2.44], for which the IC50 entry is “C-D”.

With `CN(Cc1ccccc1)c1ncnc(N2CCCC(C(=O)N[C@@H](Cc3ccc(-c4ccc(Cl)c(Cl)c4)cc3)C(=O)O)C2)c1F` (stereo partly drawn) [Example 2.45], the IC50 result is “C-D”.

`O=C(N[C@@H](Cc1ccc(-c2ccc(Cl)c(Cl)c2)cc1)C(=O)O)C1CCCN(c2ncnc(N3CCNCC3)c2F)C1` (stereo partly drawn) [Example 2.46]: the IC50 result was “C-D”.

Turning to `CCCNc1ncnc(N2CCCC(C(=O)N[C@@H](Cc3ccc(-c4ccc(Cl)c(Cl)c4)cc3)C(=O)O)C2)c1F` (stereo partly drawn) [Example 2.47], the IC50 result is “C-D”.

`O=C(N[C@@H](Cc1ccc(-c2ccc(Cl)c(Cl)c2)cc1)C(=O)O)C1CCCN(c2ncnc(NC3Cc4ccccc4C3)c2F)C1` (stereo partly drawn) [Example 2.48]: the IC50 entry is “C-D”.

Turning to `O=C(N[C@@H](Cc1ccc(-c2ccc(Cl)c(Cl)c2)cc1)C(=O)O)C1CCCN(c2ncnc(NCCN3CCCC3)c2F)C1` (stereo partly drawn) [Example 2.49], the half-maximal inhibitory concentration (IC50) entry was “C-D”.

`CCCCN(C)c1ncnc(N2CCCC(C(=O)N[C@@H](Cc3ccc(-c4ccc(Cl)c(Cl)c4)cc3)C(=O)O)C2)c1F` (stereo partly drawn) [Example 2.50]: the IC50 entry is reported as “C-D”.

In the case of `COc1ccccc1-c1ccc(C[C@H](NC(=O)C2CCCN(c3ncnc(NCc4ccccn4)c3F)C2)C(=O)O)cc1` (stereo partly drawn) [Example 2.51], the IC50 (read-out: IC50) was 0.5 to 2 µM.

For `COc1ccccc1-c1ccc(C[C@H](NC(=O)C2CCCN(c3ncnc(N4CCCCC4)c3F)C2)C(=O)O)cc1` (stereo partly drawn) [Example 2.52], the IC50 result is on record as “C-D”.

Consider `COc1ccccc1-c1ccc(C[C@H](NC(=O)C2CCCN(c3ncnc(N4CCOCC4)c3F)C2)C(=O)O)cc1` (stereo partly drawn) [Example 2.53], for which the IC50 (read-out: IC50) is 2 to 10 µM.
